Patent US20140073602A9, “NITRIC OXIDE DELIVERING HYDROXYALKYL STARCH DERIVATIVES” (FRESENIUS KABI DEUTSCHLAND GMBH, priority 2010, published 2014)

System: phenylephrine-precontracted aortic rings from rats
Assay: Vasodilatory influence in isolated rat aortic ring preparations
Conditions: first set; 1 microM
Method: The aim of the experiments was to test for the vasodilatory influence of SNO-HES in isolated rat aortic ring preparations. Isolated aortic rings from rats were precontracted by phenylephrine. SNO-HES-induced relaxations were determined after defined incubation periods. In order to completely relax the aorta and to define the 100% relaxation level, papaverine was applied at the end of an experiment. Two sets of experiments were performed:
Aortic ring preparations from adult rats (male, Lewis, 278-307 g; Janvier, St Berthevin Cedex, France) were used to perform the experiments.
All HES derivatives were supplied by Fresenius-Kabi Deutschland GmbH. SNO-HES derivatives CNO1 and CNO8 (both prepared according to GP3, table 8) were tested alongside with their precursor SH-HES (D31, prepared according to GP2.1 and GP2.2, table 6) and the unmodified HES (HES17, table 1). The first set of experiments was performed with SNO-HES derivative CNO1, the second set with CNO8.
Physiological solution contained (in mM) NaCl 120, KCl 5.5, MgSO4 1.2, KH2PO4 1.2, CaCl2 2.5, NaHCO3 25 and glucose 11. The solution was maintained at 37° C. and gassed with carbogen (95% O2+5% CO2 (v/v)). Phenylephrine (batch 050M1663) and papaverine (batch 010M1565) purchased from Sigma (Munich, Germany) were dissolved in distilled water to prepare stocks of 1 mM and 50 mM, respectively. […]

Question: Which “Relaxation of phenylephrine-contracted aortic rings (in words)” value does the source give for `N[C@@H](CCC(=O)N[C@@H](CSN=O)C(=O)NCC(=O)O)C(=O)O` [GSNO, S-nitrosogluthatione] here?
Answer: immediately and completely relaxed
